Laboratory results from patent US20240382564A1, “Methods and Compositions for Treating Muscular Dystrophy and Memory Impairment” (Allysta Pharmaceuticals, Inc., priority 2023, published 2024).
Where no end group is shown, it is not given here. [ ]: non-standard residue; d: D form. Nva = CCC[C@H](N)C(=O)O

Test system: D2.mdx mice
Test: Mitochondrial H2O2 emission in permeabilized muscle fibre bundles
Format: in vivo, mouse
Description: D2.mdx mice were treated with ALY688 at two different dosages; high dose (HD; 15 mg/kg body weight/day) or low dose (LD; 3 mg/kg body weight/day) dissolved in saline. A separate group of mice were treated with saline alone (VEH, vehicle). Treatment was provided via subscapular subcutaneous injections from 7 days of age to 28-30 days. […] At 28-30 days of age, mice were anaesthetized with isoflurane vaporized in medical air (21% oxygen) at a 2 L/min flow rate. Due to tissue limitations in limb muscle, certain measures were performed separately in tibialis anterior and quadriceps across several phases of breeding. Following the treatment protocol, in situ quadriceps force assessments were then performed in one limb followed by removal of the quadriceps from the other limb for mitochondrial assessments, diaphragm for in vitro force assessments and finally other tissues for further processing as described below. Muscle and visceral organs weights were normalized to tibia length. Tissue collected from the first phase were utilized in force, histological, mitochondrial measures (respiration, mH2O2 and calcium retention capacity) and western analyses (diaphragm and quadriceps only). A second phase was then collected and utilized for cytokine profiling, qPCR analyses and additional westerns (TA only). Serum was collected from both phase 1 and 2 and utilized for serum CK analysis. All animals were utilized in in vivo functional assays (grip strength, cage hang time and voluntary wheel running).
The quadriceps from the non-stimulated limb and the diaphragm were collected and quickly placed in a buffer containing (in mM) 50 MES Hydrate, 7.23 K2EGTA, 2.77 CaK2EGTA, 20 imidazole, 0.5 dithiothreitol, 20 taurine, 5.77 ATP, 15 PCr, and 6.56 MgCl2·6H2O (pH 7.1). Both muscles were trimmed of connective tissue and fat and separated along the longitudinal axis into small bundles weighing approximately 1.0-2.5 mg wet weight for respiration and mH2O2 and 0.5-1.5 mg wet weight for calcium retention capacity. Bundles were permeabilized with […] saponin (Sigma Aldrich; St. Louis, MI, USA) in BIOPS on a platform rotor for 30 minutes at 4° C. The permeabilized bundles were then transferred to wash buffers to remove saponin as follows: MiRO5 for mitochondrial respiration, Buffer Z for mitochondrial H2O2 emission (mH2O2), and Buffer Y for calcium retention capacity. The composition of each buffer has been described previously. Fibres prepared for pyruvate-supported mitochondrial H2O2 emission (mH2O2) were permeabilized in the presence of 35 μM 2,4-dinitrochlorobenzene (CDNB) to deplete glutathione and enhance the detection of mH2O2. All bioenergetic assays were performed within 4 hours of washing to maintain fibre viability.
Briefly, mH2O2 was determined spectrofluorometrically (QuantaMaster 40, HORIBA Scientific, Irvine, CA, USA) utilizing Buffer Z containing 10 μM Amplex Ultra Red (Life Technologies; Carlsbad, CA, USA), 1 U/mL horseradish peroxidase, 1 mM EGTA, 40 U/mL Cu/Zn SOD1, 5 μM blebbistatin and 20 mM Cr. […] The ability of ADP to suppress mH2O2 was assessed with a titration of physiological concentrations (25, 100) and saturating for oxidant generation (500 μM). […] The rate of mH2O2 emission was calculated using a standard curve under the same assay conditions and then normalized to fibre bundle dry weight.

## [dN]IP[Nva]LY[dS]FA[dS]-NH2 [ALY688]
diaphragm, HD
  mitochondrial responsiveness to ADP (pyruvate/malate-supported mH2O2 emission): completely preserved
diaphragm, HD, across ADP concentrations
  reduction of pyruvate/malate-supported mH2O2 emission: 8.7 to 70.7%
diaphragm, absence and presence of creatine, LD and HD
  succinate-induced mH2O2 emission: no effect of either drug dose
quadriceps, both doses, absence and presence of creatine
  attenuation of succinate-induced mH2O2 emission: 11.3 to 73.6%
quadriceps, both doses, across ADP concentrations
  attenuation of pyruvate/malate-supported mH2O2 emission: 45.9 to 62.3%
